Where two headings read alike, the source gives them in different places.
Experiments:
S. aureus ATCC 25923 = assay: broth microdilution antimicrobial activity, S. aureus reference strain; type: cell-based, Staphylococcus aureus; conditions: Staphylococcus aureus; for IC50: ATCC25923, S. aureus ATCC 25923, mean [95% confidence interval]
Procedure: (§1) Reference bacterial strains of Staphylococcus aureus (ATCC 25923), Escherichia coli (ATCC 25922), and Candida albicans (ATCC 10231) were used in this study as Gram-positive, Gram-negative, and fungal models, respectively. These reference strains were purchased from the American Type Culture Collection (ATCC, Manassas, VA, USA); bacterial cultures were routinely grown at 37 °C on 5% blood agar plate, while fungal cultures on Sabouraud Dextrose Agar (Biolife Italiana S.r.l., Milan, Italy).
(§2) The dry powder of the isatin derivatives was resuspended in dimethylsulfoxide (DMSO) at 20 mM and used as stock solutions. For biological investigations, compounds were used in the range 100–0.78 µM, and the solvent in the corresponding percentage range.
(§3) The antimicrobial activity of the compounds was assessed by a well-established broth microdilution procedure in microtiter plates and in compliance with the Clinical and laboratory Standard Institute (CLSI) guidelines (Clinical and Laboratory Standards Institute, Wayne, PA, USA). In short, microbial inocula were prepared at 0.5 McFarland in PBS and, subsequently, bacterial suspensions were diluted 1:200 in Mueller–Hinton broth (Sigma-Aldrich, St. Louis, MO, USA), while fungal inoculum was diluted 1:20 in RPMI-1640 medium (Gibco®, ThermoFisher Scientific Inc., Waltham, MA, USA), containing 2% glucose and 0.3% levo-glutamine buffered to pH 7.0 with 0.165 M 3-(N-morpholino)propanesulfonic acid (MOPS). A total of 100 µL of these microbial suspensions were introduced in a 96-well microplate and incubated with 100 µL of the compounds, two-fold serially diluted in the range of 100–0.19 µM. Positive controls (microbial suspensions in regular media), negative controls (only compounds), and solvent controls (microbial suspensions incubated with DMSO dilutions) were included in the tests. The plate was incubated at 37 °C for 24 h, and subsequently, the optical density at 630 nm (OD630nm) was spectrophotometrically measured. Each experiment was carried out with three technical replicates (i.e., three wells per sample) and repeated at least two times for statistical power. […] IC50 values, corresponding to the concentration of the compound giving rise to an inhibition of growth of 50%, were obtained by interpolation on dose–response curves generated by plotting the percentages of growth inhibition, relative to the positive control (set to 100% of growth), as a function of the tested concentrations (on a logarithm scale). Statistical analysis was carried out using GraphPad Prism version 9.4.1 for Windows (GraphPad Software, San Diego, CA, USA, www.graphpad.com).

E. coli ATCC 25922 = assay: broth microdilution antimicrobial activity, E. coli reference strain; type: cell-based, Escherichia coli; conditions: Escherichia coli
Procedure: as §1, §2, §3

[1] = tested on: Vero cell line (ATCC CCL-81); assay: cell viability and proliferation assay (WST8/CCK-8); type: cell-based; conditions: for viability at 100 µM: Chlorocebus sabaeus, Vero, 48 h, read-out: Cell proliferation, Vero
Procedure: (§4) Vero cell line (ATCC CCL-81) was selected as the model system to assess the effect of the isatin hybrids on normal epithelial cells, and a previously established protocol was used with minor modifications. Briefly, cells were cultured in RPMI-1640 medium supplemented with 10% fetal bovine serum (FBS) (Carlo Erba Reagents, Milan, Italy), 100 U/mL penicillin, and 100 µg/mL streptomycin at 37 °C with 5% CO2. For experiments, cells were seeded into 96-well plates at 10^4 cells/well, and incubated at 37 °C for 24 h. Following washes with PBS, the cell monolayer was incubated with 100 µL of medium containing the 2-fold serial dilutions of the compounds. Both untreated cells and cells incubated with medium containing solvent dilutions were included in each experiment as controls. The cell viability was assessed by a WST8-based assay according to the manufacturer’s instructions (CCK-8, Cell Counting Kit-8, Dojindo Molecular Technologies, Rockville, MD, USA). After 48 h of incubation, culture medium was removed from each well, the monolayer was washed with PBS, and 100 µL of fresh medium containing 10 µL of CCK-8 solution were added. After 2 h at 37 °C, the OD450nm was read, and data were expressed as the percentage of the cell viability relative to the untreated controls. The CC50 was obtained from the corresponding dose–response curves generated, as previously reported for IC50 values.

C. albicans ATCC 10231 = assay: broth microdilution antimicrobial activity, C. albicans reference strain; type: cell-based, Candida albicans; conditions: Candida albicans
Procedure: as §1, §2, §3

[2] = cell viability and proliferation assay (WST8/CCK-8); type: cell-based; conditions: African green monkey, Vero cells (ATCC CCL-81); Vero cells; mean [95% confidence interval]
Procedure: as §4

[3] = ATCC25922, 100 μM, growth relative to positive control, mean ± SD, read-out: Microbial growth, E. coli
[4] = 100 μM, viability relative to untreated controls, mean ± SD
[5] = ATCC10231, 100 μM, growth relative to positive control, mean ± SD, read-out: Microbial growth, C. albicans
[6] = ATCC25923, 100 μM, growth relative to positive control, mean ± SD, read-out: Microbial growth, S. aureus
[7] = ATCC25922, read-out: Microbial growth, E. coli
[8] = ATCC10231, read-out: Microbial growth, C. albicans
[9] = ATCC25923, read-out: Microbial growth, S. aureus

SMILES	activity at 100 µM (E. coli ATCC 25922; [3]) [%]	viability at 100 µM [1, 4] [%]	activity at 100 µM (C. albicans ATCC 10231; [5]) [%]	activity at 100 µM (S. aureus ATCC 25923; [6]) [%]	further results
CNC(C)C1CCC(N)C(OC2C(N)CC(N)C(OC3OCC(C)(O)C(NC)C3O)C2O)O1 (stereo not shown) [GMN, gentamicin, reference compound]					IC50 (S. aureus ATCC 25923): 4 µM
CC1(C)S[C@@H]2[C@H](NC(=O)[C@H](N)c3ccccc3)C(=O)N2[C@H]1C(=O)O [AMP, ampicillin, reference compound]					IC50 (S. aureus ATCC 25923): 2.56 µM
Cc1cn2c(C3(c4c(Cl)nc5sc(C)cn45)C(=O)Nc4ccc(F)cc43)c(Cl)nc2s1 [Compound 6, 3,3-bis(6-Chloro-2-methylimidazo[2,1-b]thiazol-5-yl)-5-fluoroindolin-2-one]	98.7 ± 0.9	38.2 ± 1.5	101 ± 1.9	101 ± 10.1	
COc1ccc2c(c1)C(c1c(Cl)nc3sc(C)cn13)(c1c(Cl)nc3sc(C)cn13)C(=O)N2 [Compound 3, 3,3-bis(6-Chloro-2-methylimidazo[2,1-b]thiazol-5-yl)-5-methoxyindolin-2-one]	97 ± 1.8	90.3 ± 4.2	101 ± 3.6	104 ± 8.5	
O=C1Nc2cccc(I)c2C1(O)c1c(Cl)nc2sccn12 (stereo not shown) [Compound 19, 3-(6-Chloroimidazo[2,1-b]thiazol-5-yl)-3-hydroxy-4-iodoindolin-2-one]					activity at 100 µM (E. coli ATCC 25922; [7]): 95.2 ± 2.6%; viability at 100 µM [1]: 98.9 ± 2.6%; activity at 100 µM (C. albicans ATCC 10231; [8]): 131 ± 7.5%; activity at 100 µM (S. aureus ATCC 25923; [9]): 148 ± 4.8%
Cc1cn2c(C3(c4c(Cl)nc5sc(C)cn45)C(=O)N(Cc4ccccc4)c4ccccc43)c(Cl)nc2s1 [Compound 14, 1-Benzyl-3,3-bis(6-chloro-2-methylimidazo[2,1-b]thiazol-5-yl)indolin-2-one]	99 ± 0.4	104 ± 1.9	116 ± 1.2	107 ± 3.9	
O=C1N(Cc2ccccc2)c2ccccc2C1(c1c(Cl)nc2sccn12)c1c(Cl)nc2sccn12 [Compound 13, 1-Benzyl-3,3-bis(6-chloroimidazo[2,1-b]thiazol-5-yl)indolin-2-one]	96.2 ± 4	56.8 ± 0.1	113.7 ± 0.7	92 ± 4	Cell proliferation, Vero [1, 4]: less active
O=C1Nc2cc(F)ccc2C1(c1c(Cl)nc2sccn12)c1c(Cl)nc2sccn12 [Compound 7, 3,3-bis(6-Chloroimidazo[2,1-b]thiazol-5-yl)-6-fluoroindolin-2-one]	106 ± 2.1	88.2 ± 1.9	81.1 ± 0.7	76.9 ± 1.5	
COc1cccc2c1C(=O)c1c(O)c3c(c(O)c1C2=O)C[C@@](O)(C(=O)CO)C[C@@H]3O[C@H]1C[C@H](N)[C@H](O)[C@H](C)O1 [DOX, doxorubicin, reference compound]					CC50 at 48 h [2]: 70.6 µM
Cc1cn2c(C3(c4c(Cl)nc5sc(C)cn45)C(=O)N(CC=Cc4ccccc4)c4ccccc43)c(Cl)nc2s1 [Compound 16, 3,3-bis(6-Chloro-2-methylimidazo[2,1-b]thiazol-5-yl)-1-cinnamylindolin-2-one]	69.2 ± 0.9	93.3 ± 1.9	60.3 ± 1.1	69.1 ± 4.3	
Cc1cn2c(C3(O)C(=O)Nc4cccc(I)c43)c(Cl)nc2s1 (stereo not shown) [Compound 20, 3-(6-Chloro-2-methylimidazo[2,1-b]thiazol-5-yl)-3-hydroxy-4-iodoindolin-2-one]					activity at 100 µM (E. coli ATCC 25922; [7]): 98 ± 1.3%; viability at 100 µM [1]: 101 ± 2.4%; activity at 100 µM (C. albicans ATCC 10231; [8]): 108 ± 2.7%; activity at 100 µM (S. aureus ATCC 25923; [9]): 104 ± 4%
O=C1Nc2cccc(C(F)(F)F)c2C1(O)c1c(Cl)nc2sccn12 (stereo not shown) [Compound 17, 3-(6-Chloroimidazo[2,1-b]thiazol-5-yl)-3-hydroxy-4-(trifluoromethyl)indolin-2-one]					activity at 100 µM (E. coli ATCC 25922; [7]): 104 ± 1.6%; viability at 100 µM [1]: 103.1 ± 1%; activity at 100 µM (C. albicans ATCC 10231; [8]): 132 ± 3.9%; activity at 100 µM (S. aureus ATCC 25923; [9]): 149 ± 3.8%
Cc1cn2c(C3(O)C(=O)Nc4cccc(C(F)(F)F)c43)c(Cl)nc2s1 (stereo not shown) [Compound 18, 3-(6-Chloro-2-methylimidazo[2,1-b]thiazol-5-yl)-3-hydroxy-4-(trifluoromethyl)indolin-2-one]					activity at 100 µM (E. coli ATCC 25922; [7]): 109 ± 3.5%; viability at 100 µM [1]: 93.1 ± 2.9%; activity at 100 µM (C. albicans ATCC 10231; [8]): 97.1 ± 0.9%; activity at 100 µM (S. aureus ATCC 25923; [9]): 101 ± 3.1%
O=C1Nc2cc(I)ccc2C1(c1c(Cl)nc2sccn12)c1c(Cl)nc2sccn12 [Compound 9, 3,3-bis(6-Chloroimidazo[2,1-b]thiazol-5-yl)-6-iodoindolin-2-one]	98.3 ± 2.5	98.2 ± 1.5	63.7 ± 1.2	80.2 ± 2.6	
Cc1cn2c(C3(c4c(Cl)nc5sc(C)cn45)C(=O)Nc4cc(F)ccc43)c(Cl)nc2s1 [Compound 8, 3,3-bis(6-Chloro-2-methylimidazo[2,1-b]thiazol-5-yl)-6-fluoroindolin-2-one]	99.8 ± 2.6	75.2 ± 2.5	64.2 ± 4.3	97.9 ± 2.8	
Cc1cn2c(C3(c4c(Cl)nc5sc(C)cn45)C(=O)Nc4cc(OC(F)(F)F)ccc43)c(Cl)nc2s1 [Compound 12, 3,3-bis(6-Chloro-2-methylimidazo[2,1-b]thiazol-5-yl)-6-(trifluoromethoxy)indolin-2-one]	96.6 ± 1	56.1 ± 1.1	118.1 ± 0.2	110 ± 12.8	
Cc1cn2c(C3(c4c(Cl)nc5sc(C)cn45)C(=O)Nc4cc(I)ccc43)c(Cl)nc2s1 [Compound 10, 3,3-bis(6-Chloro-2-methylimidazo[2,1-b]thiazol-5-yl)-6-iodoindolin-2-one]	94.3 ± 2.7	78.8 ± 5.5	59.6 ± 0.4	87.7 ± 2.5	
Cc1cn2c(C3(c4c(Cl)nc5sc(C)cn45)C(=O)N(Cc4ccc(Cl)cc4)c4ccccc43)c(Cl)nc2s1 [Compound 4, 3,3-bis(6-Chloro-2-methylimidazo[2,1-b]thiazol-5-yl)-1-(4-chlorobenzyl)indolin-2-one]	99 ± 2.9	116 ± 4	125 ± 6.3	98.7 ± 0.8	
